Like-named read-outs stand apart in the source and are kept apart here.
Experiments:
[1] = target: T1, HDAC6 (Homo sapiens, UniProt Q9UBN7); test: Human HDAC enzyme inhibitor Fluor-de-Lys assay, HDAC6; format: biochemical
T1 sequence (Q9UBN7 1-1215): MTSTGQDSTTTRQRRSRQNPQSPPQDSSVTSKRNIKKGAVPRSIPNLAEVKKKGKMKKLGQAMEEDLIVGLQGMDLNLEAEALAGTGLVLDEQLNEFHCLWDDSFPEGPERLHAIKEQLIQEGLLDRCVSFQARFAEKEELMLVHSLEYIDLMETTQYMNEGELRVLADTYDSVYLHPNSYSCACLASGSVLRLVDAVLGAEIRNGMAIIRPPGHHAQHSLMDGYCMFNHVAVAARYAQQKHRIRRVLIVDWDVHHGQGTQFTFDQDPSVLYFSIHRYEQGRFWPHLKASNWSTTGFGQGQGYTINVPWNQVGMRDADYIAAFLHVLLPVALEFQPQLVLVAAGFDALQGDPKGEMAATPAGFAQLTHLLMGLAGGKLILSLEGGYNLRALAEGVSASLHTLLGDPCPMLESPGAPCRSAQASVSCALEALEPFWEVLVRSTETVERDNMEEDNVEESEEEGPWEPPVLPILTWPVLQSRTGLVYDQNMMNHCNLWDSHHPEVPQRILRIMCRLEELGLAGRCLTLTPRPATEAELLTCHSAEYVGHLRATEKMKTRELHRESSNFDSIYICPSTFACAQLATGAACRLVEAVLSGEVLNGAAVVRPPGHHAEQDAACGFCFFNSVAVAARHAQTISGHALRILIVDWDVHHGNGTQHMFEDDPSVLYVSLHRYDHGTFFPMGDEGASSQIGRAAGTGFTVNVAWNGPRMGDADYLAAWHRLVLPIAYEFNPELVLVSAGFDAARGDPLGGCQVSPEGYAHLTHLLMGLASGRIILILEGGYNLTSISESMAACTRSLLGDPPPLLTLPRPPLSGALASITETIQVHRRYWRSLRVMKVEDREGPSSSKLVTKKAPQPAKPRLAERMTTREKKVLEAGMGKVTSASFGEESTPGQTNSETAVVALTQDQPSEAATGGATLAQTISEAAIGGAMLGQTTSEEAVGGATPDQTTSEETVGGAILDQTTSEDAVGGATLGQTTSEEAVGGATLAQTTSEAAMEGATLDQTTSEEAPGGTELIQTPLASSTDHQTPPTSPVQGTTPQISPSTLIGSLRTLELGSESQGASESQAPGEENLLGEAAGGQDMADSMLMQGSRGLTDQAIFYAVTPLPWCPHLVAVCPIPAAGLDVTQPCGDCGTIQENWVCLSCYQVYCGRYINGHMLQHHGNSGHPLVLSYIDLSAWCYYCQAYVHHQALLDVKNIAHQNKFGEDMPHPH
Description: (§1) Human HDAC Enzyme Inhibitor Fluor-De-Lys Assay
(§2) Recombinant human HDAC8 (BML-SE145-0100) and HDAC10 (BML-SE559-0050) enzymes, HDAC substrates BML-KI104 and BML-KI178, and HDAC developer solutions BML-KI105 and BML-KI176 were purchased from Enzo Life Sciences. […] HDAC inhibitor suberoylanilide hydroxamic acid (SAHA) was obtained from Indofine and trichostatin A (TSA) was obtained from Sigma-Aldrich.
(§3) The histone deacetylase activities of HDAC1, HDAC2, HDAC3, HDAC6, and HDAC8 were measured in modified FLUOR DE LYS assays in 384-well format. In this assay, HDAC enzymes are initially incubated with an ε-acetyl (or -trifluoroacetyl)-L-lysine-containing substrate with a C-terminal amide having aminomethylcoumarin as the amine component. HDACs cleave the ε-acetyl group, rendering the resulting product susceptible to AMC cleavage by trypsin. The released AMC is then detected by its fluorescence.
(§4) The HDAC3/SMRT assay employed buffer B, consisting of 20 mM HEPES, pH 8.0, 1 mM MgCl2, 50 mM NaCl, 2.7 mM KCl, 0.05% BSA, 0.005% Tween 20, and 10 μM IP4. […] The HDAC8 assay employed buffer D, consisting of 20 mM HEPES, pH 8.0, 1 mM MgCl2, 100 mM NaCl, 20 mM KCl, 0.10% n-octyl-β-D-glucoside (Anatrace) and 0.05% BSA. All steps were performed at room temperature (23° C.). The assay was performed by pre-incubating serial dilutions of test compounds with the target HDAC prior to initiation with substrate. Each compound was titrated in a 10-point dose response, using a 1:3 fold dilution scheme, with 0.15 ul of solution added by ECH0555 to the plate, followed by the addition of 20 μl of the appropriate HDAC isoform diluted in appropriate assay buffer. […] Final conditions used for each assay were: 1. HDAC 1, 0.3 nM total enzyme, 20 μM substrate BML-KI104; 2. […] HDAC 3/SMRT, 0.3 nM total enzyme, 20 μM substrate BML-KI104; 4. […] The reactions were stopped and developed by addition of 30 ul of HDAC developer solution containing a saturating level of HDAC inhibitor as follows: 1.

[2] = tested on: KARN cells (Jurkat 2C4); test: cells; format: cell-based
Description: KARN cells (Jurkat 2C4) were licensed from the laboratory of Dr. John Karn, Case Western Reserve University, School of Medicine. […] An atmosphere of 5% CO2 and 90% humidity was used for all culture work.
Day 1: After the 3-4 day growth period, the cells were transferred from the T175 flask to a 50 ml conical tube and gently pelleted at 1000 rpm for 5 minutes. […] These flasks were returned to the incubator.
Day 2: Cell Preparation: The next day, the cells were transferred from each T175 flask to an individual 50 ml conical tube and gently pelleted at 1000 rpm for 5 minutes. The cells were gently resuspended in assay media (30 ml) and pelleted again. […] The cells were counted using the ViCell (Beckman Coulter) and diluted as necessary. […] The plates were covered and returned to the incubator prior to compound addition.
The reference compounds, DMSO and SAHA were then added to the compound plate. […] The final high concentration for SAHA and the test compounds in the assays was 40 μM. The final DMSO concentration in all wells was 0.4%. The minimal induction reference compound used was DMSO and the maximal induction reference compound used was SAHA (2 μM final concentration in the assay).
Day 3: The luciferase detection reagent was prepared by transferring the contents of one bottle of Steady-Glo buffer to one bottle of Steady-Glo aubstrate (Steady-Glo Luciferase Assay System, Promega, catalog number E2520), followed by gently mixing until the substrate was thoroughly dissolved and the solution was equilibrated to room temperature. […] The Steady-Glo Reagent was added to the plates (30 μl/well), which were then covered with a black lid and incubated for 10 minutes at room temperature. The plates were then read for luminescence on an Envision (Perkin Elmer) using the ultrasensitive mode (US LUM), […] and 384-well aperture. Luminescence counts in the DMSO reference wells were considered as 0% induction, while those in the 2 μM SAHA reference wells were considered as 100% induction. Dose response curves were plotted as test compound concentration (X-axis) vs. percent activation (Y-axis) using a 4-parameter fit based on the Levenberg-Marquardt algorithm.

[3] = target: T2, Recombinant human HDAC8 (Homo sapiens, UniProt Q9BY41); test: Human HDAC enzyme inhibitor Fluor-de-Lys assay, HDAC8; format: biochemical
T2 construct: purchased Enzo Life Sciences BML-SE145-0100
T2 sequence (Q9BY41 1-377): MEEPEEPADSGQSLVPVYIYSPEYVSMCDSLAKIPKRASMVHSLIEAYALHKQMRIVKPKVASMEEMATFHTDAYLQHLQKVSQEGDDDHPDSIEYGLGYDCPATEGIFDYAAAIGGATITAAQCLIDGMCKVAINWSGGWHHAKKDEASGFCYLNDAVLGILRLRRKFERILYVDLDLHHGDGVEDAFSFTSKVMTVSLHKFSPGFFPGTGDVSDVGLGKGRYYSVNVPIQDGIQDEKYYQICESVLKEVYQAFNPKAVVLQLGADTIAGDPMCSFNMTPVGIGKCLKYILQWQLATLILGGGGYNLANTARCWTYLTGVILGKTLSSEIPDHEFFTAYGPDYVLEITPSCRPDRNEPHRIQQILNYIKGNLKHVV
Description: as §1, §2, §3, §4

[4] = Homo sapiens, Jurkat, read-out: Karn EC50 (nM) 0.1% NHS, 0.1% normal human serum, luciferase induction, 100% = 2 μM SAHA
[5] = Homo sapiens, Jurkat, read-out: Karn EC50 (nM) 5% NHS, 5% normal human serum, luciferase induction, 100% = 2 μM SAHA
[6] = recombinant human HDAC8, Fluor-de-Lys assay
[7] = Homo sapiens, Jurkat, read-out: Karn EC50 (nM) 0.1% NHS, 0.1% normal human serum
[8] = Homo sapiens, Jurkat, read-out: Karn EC50 (nM) 5% NHS, 5% normal human serum
[9] = read-out: Karn EC50 (nM) 0.1% NHS, 0.1% normal human serum, luciferase induction, 100% = 2 μM SAHA
[10] = read-out: Karn EC50 (nM) 5% NHS, 5% normal human serum, luciferase induction, 100% = 2 μM SAHA
[11] = read-out: Karn EC50 (nM) 0.1% NHS, 0.1% normal human serum
[12] = read-out: Karn EC50 (nM) 5% NHS, 5% normal human serum

SMILES | IC50 ([1]; HDAC6, Fluor-de-Lys assay) [nM] | EC50 [2, 4] [nM] | EC50 [2, 5] [nM] | IC50 [3, 6] [nM] | further results
CCC(=O)CCCCC[C@H](NC(=O)[C@H]1CC12CCN(C)CC2)c1ncc(-c2cc3ccccc3nc2OC)[nH]1 (single isomer, unassigned) [Compound 321] | 158 | 27 | 83 | 3380 | –
CCN1CCC2(CC1)C[C@@H]2C(=O)N[C@@H](CCCCCC(=O)CC1CC1)c1ncc(-c2cccnc2OC)[nH]1 [Compound 202] | – | – | – | – | IC50 [1]: 34900 nM; EC50 [2, 7]: 210 nM; EC50 [2, 8]: 501 nM; IC50 [3]: 8780 nM
CCC(=O)CCCCC[C@H](NC(=O)[C@H]1CC12CCCN(C)C2)c1ncc(-c2cc3ccccc3nc2OC)[nH]1 (some centres unmarked) [Compound 287] | 351 | – | – | 2780 | EC50 [2, 9]: 81 nM; EC50 [2, 10]: 325 nM
CCC(=O)CCCCC[C@H](NC(=O)[C@H]1C[C@]12CCN(C)C2)c1ncc(-c2cc3ccccc3nc2OC)[nH]1 [Compound 327] | – | 73 | 232 | 3870 | –
CCC(=O)CCCCC[C@H](NC(=O)[C@@H]1CC12CCN(C)CC2)c1ncc(-c2ccc3ncccc3c2)[nH]1 [Compound 281] | – | 2140 | 2170 | – | –
CCC(=O)CCCCC[C@H](NC(=O)[C@H]1CC12CN(C)C2)c1ncc(-c2cc3ccccc3nc2OC)[nH]1 [Compound 323] | 376 | 284 | 1290 | 2300 | –
CCC(=O)CCCCC[C@H](NC(=O)[C@H]1CC12CCN(CC)CC2)c1ncc(-c2ccc3cccnc3c2)[nH]1 [Compound 344] | 862 | 37 | 54 | 3420 | –
CCC(=O)CCCCC[C@H](NC(=O)[C@H]1CC12CCN(C)CC2)c1ncc(-c2cccnc2OC)[nH]1 [Compound 102] | – | – | – | – | IC50 [1]: 1950 nM; EC50 [2, 7]: 290 nM; EC50 [2, 8]: 301 nM; IC50 [3]: 3260 nM
CCC(=O)CCCCC[C@H](NC(=O)C1CC12CCC(N(C)C)CC2)c1ncc(-c2cc3ccccc3nc2OC)[nH]1 (single isomer, unassigned) [Compound 127] | – | – | – | – | IC50 [1]: 364 nM; EC50 [2, 11]: 37 nM; EC50 [2, 12]: 60 nM; IC50 [3]: 76 nM
CCC(=O)CCCCC[C@H](NC(=O)C1CC12CCN(C)CC2)c1ncc(-c2cc3ccccc3nc2OC)[nH]1 (stereo partly drawn) [Compound 313, N—((S)-1-(5-(2-methoxyquinolin-3-yl)-1H-imidazol-2-yl)-7-oxononyl)-6-methyl-6-azaspiro[2.5]octane-1-carboxamide] | 246 | 57 | 272 | 3020 | –
CCC(=O)CCCCC[C@H](NC(=O)[C@H]1CC12CCN(CC)CC2)c1ncc(-c2cc3ccn(CC)c(=O)c3cc2OC)[nH]1 [Compound 245] | 694 | 18 | 22 | 9010 | –
CCC(=O)CCCCC[C@H](NC(=O)[C@H]1CC12CCN(CC1CC1)CC2)c1ncc(-c2cc3cccnc3cc2OC)[nH]1 [Compound 394] | 76 | 18 | 24 | > 900 | –
CCC(=O)CCCCC[C@H](NC(=O)C1CC12CCC(N(C)C)CC2)c1ncc(-c2cc3ccccc3nc2OC)[nH]1 (single isomer, unassigned) [Compound 128] | – | – | – | – | IC50 [1]: 759 nM; EC50 [2, 11]: 442 nM; EC50 [2, 12]: 1140 nM; IC50 [3]: 5580 nM
CCC(=O)CCCCC[C@H](NC(=O)[C@@H]1CC12CCOCC2)c1ncc(-c2cc3ccccc3nc2OC)[nH]1 [Compound 64] | – | – | – | – | IC50 [1]: 3580 nM; EC50 [2, 7]: 647 nM; EC50 [2, 8]: 5040 nM; IC50 [3]: 6350 nM
CCC(=O)CCCCC[C@H](NC(=O)[C@@H]1CC12CCN(C)CC2)c1ncc(-c2cc3ccccc3nc2O)[nH]1 (single isomer, unassigned) [Compound 324] | – | 1170 | 1210 | – | –
CCC(=O)CCCCC[C@H](NC(=O)[C@H]1CC12CCN(C)CC2)c1ncc(-c2ccc3ncccc3c2)[nH]1 [Compound 282] | – | – | – | – | EC50 [2, 9]: 294 nM; EC50 [2, 10]: 247 nM
CCC(=O)CCCCC[C@H](NC(=O)[C@H]1CC12CCN(C)CC2)c1ncc(-c2cc3ccccc3nc2O)[nH]1 (single isomer, unassigned) [Compound 325] | – | 154 | 216 | – | –
